Data on 3 molecules can be found in patent publication US20160200762A1, “Bioactive polypeptide DELQ and preparation method as well as application thereof” (SHANGHAI JIAOTONG UNIVERSITY, priority 2012, published 2016).

Data set [1] is described as follows: simulated in vitro gastrointestinal digestion (pepsin, then pancreatin), UPLC-Q-TOF-MS analysis. The data set is classed as in vitro ADME. To be noted: 500 μg/mL; pepsin pH 2.0 37° C. 90 min, then pancreatin pH 7.5 37° C. 150 min. The protocol:
The experiment is divided into two steps. Firstly, preparing a 500 μg/mL DELQ solution, adding pepsin with a ratio of 20 mg the pepsin for every gram of the DELQ, adjusting a pH value of the reaction solution to 2.0, reacting with a temperature kept in a 37° C. thermostatic waterbath for 90 min; then adjusting a pH value to 7.5, and adding pancreatin with a ratio of 40 mg the pancreatin for every gram of the DELQ, and reacting with a temperature kept in a 37° C. thermostatic waterbath for 150 min; inactivating disgestive enzymes with a 95° C. waterbath for 5 min; and freeze-drying the reaction solution for obtaining dry powder thereof, and storing at −20° C. for further use.
Picking 0.2 mg powder sample after stimulated in vitro gastrointestinal digestion, adding 50 μL water and 450 μL pure ethanol, thorough shocking before putting into a −20° C. freezer for 20 min, centrifuging at 15000 rpm for 30 min, collecting 400 μL supernatant for UPLC-Q-TOF-MS analysis. […]
According to the above experiment conditions, the bioactive polypeptides DELQ before and after treatment with digestive enzymes are analyzed by UPLC-Q-TOF-MS, a total ion stream obtained is shown in FIG. 11. […]

Data set [2] can be described thus: in vitro antioxidant activity detection with the [DPPH.] method (radical removing rate). The class given is biochemical. As to the method:
(1) Preparing 1 mmol/L [DPPH.] Methanol Solution:
Weighting […] [DPPH.] with the analytical balance and dissolving in 1 ml methanol solution for obtaining 1 mmol/L [DPPF.] methanol solution, storing with tinfoil for avoiding light, wherein the [DPPF.] methanol solution is prepared before use.
(2) Standard Curve Detection of [DPPH.] Methanol Solution:
Adding 100 μL [DPPH.] methanol standard curve sample into the 96-hole cell culturing plate according to a Table 2, waiting for 90 min at a room temperature, detecting absorbance values at 517 nm with the microplate reader.
Accordingly, curves are fitted and a regression equation is calculated with Excel, and results thereof are shown in FIG. 8 (the regression equation: y=−0.192x+0.2271, R^2=0.9991). […] From the results, absorbance values and [DPPF.] contents have an inverse relationship, i.e. the less the [DPPH.] content is, the […] the absorbance value will be, which means a stronger radical removing ability.
(3) Antioxidant Activity Detection of the Bioactive Polypeptide DELQ with [DPPH.] Method […]
2) blank group: adding 80 μL 1 mmol/L [DPPF.] methanol solution and 20 μL deionized water into the same 96-hole cell culturing plate for forming a blank group.
After adding the test sample, waiting at the room temperature for 90 min, detecting the absorbance values at 517 nm with the microplate reader, and calculating a radical removing ratio according to a following formula, wherein results thereof are shown in Table 3.

Data set [3] can be described thus: total antioxidant capacity detection with the FRAP (Ferric Reducing Ability Power) method. The class given is biochemical. To be noted: sample concentration 4.00 mg/mL. As to the method: (1) Preparing FRAP Working Fluid:
According to the FRAP detection reagent kit, thorough mixing 7.5 mL TPTZ diluent, 750 μL TPTZ solution, and 750 μL detection buffer, incubating in a 37° C. water bath, and using in 2 h.
(2) Drawing a FeSO4 Standard Curve:
Adding 180 μL FRAP working fluid into the 96-hole cell culturing plate, then adding 5 μL FeSO4 standard curve solution according to Table 4, gently mixing, incubating at 37° C. for 3-5 min, and detecting absorbance values at 593 nm with the microplate reader.
FeSO4 concentration and the absorbance value have a good proportional relationship, i.e. the higher the FeSO4 concentration is, the higher absorbance value will be. According to the present invention, FeSO4 standard curve results are shown in FIG. 10, the standard curve has a good linear relationship, wherein a correlation coefficient thereof is 0.998. Precision and accuracy of the FeSO4 curve satisfy testing requirements, and are applicable for subsequent calculation.
(3) Bioactive Polypeptide DELQ Antioxidant Capacity Detection with FRAP Method
Adding 180 μL FRAP working fluid into the 96-hole cell culturing plate, adding 5 μL ddH2O into a blank control hole, adding 5 μL testing sample into a sample hole, adding 5 μL phytic acid into a positive control, gently mixing, incubating at 37° C. for 3-5 min, and detecting absorbance values at 593 nm with the microplate reader. […]

Where a SMILES comes first, the peptide text is derived from it.

For `CC(C)C[C@H](NC(=O)[C@H](CCC(=O)O)NC(=O)[C@@H](N)CC(=O)O)C(=O)N[C@@H](CCC(N)=O)C(=O)O` [DELQ, Asp-Glu-Leu-Gln] (H-DELQ-OH; N-terminus and C-terminus assumed), in data set [1], the “stability under simulated in vitro gastrointestinal digestion” value is on record as “stable”.

Turning to `Cc1c(C)c2c(c(C)c1O)CCC(C)(C(=O)O)O2` (stereo not drawn) [Trolox], the “[DPPH.] radical removing rate” value in data set [2] (positive control 1, 2.5 mg/mL Trolox) was 99.96%; in data set [2] (positive control 2, 0.025 g/mL Trolox), 71.08 ± 0.03%.

Regarding `O=P(O)(O)O[C@H]1[C@H](OP(=O)(O)O)[C@@H](OP(=O)(O)O)[C@H](OP(=O)(O)O)[C@@H](OP(=O)(O)O)[C@H]1OP(=O)(O)O` [phytic acid], the FRAP in data set [3] turned out to be 0.0089 mmol/g. In addition, the “corresponding FeSO4 concentration” value in data set [3] (593 nm) is reported as 0.0356 ± 0.0055 mmol/L. Besides, in data set [2] (negative control, concentration not given), the “[DPPH.] radical removing rate” value is 58.49 ± 0.08%.
